Measurements from paper PMC7827406, “Structure–Activity Relationship (SAR) Study of Spautin-1 to Entail the Discovery of Novel NEK4 Inhibitors” (International Journal of Molecular Sciences, 2021).
Where two headings read alike, the source gives them in different places.

Experiments:
Experiment in all cases: biochemical
Parameters in all cases: Eurofins KinaseProfiler full panel at Km ATP, residual kinase activity (%) relative to DMSO
[1] = biological target: Ret(V804M)(h) (Homo sapiens, UniProt P07949, V804M)
Method in brief: (§1)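 Radiometric kinase activity assays were run with ATP at Km and compounds at 10 µM, and remaining activity (%) was reported. A separate competitive binding screen measured DNA-tagged kinase displaced from immobilized active-site ligands by qPCR, giving percent kinase still bound at 10 µM compound in DMSO.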

[2] = biological target: SIK3(h) (Homo sapiens, UniProt Q9Y2K2)
Chain of SIK3(h) (Q9Y2K2 whole entry): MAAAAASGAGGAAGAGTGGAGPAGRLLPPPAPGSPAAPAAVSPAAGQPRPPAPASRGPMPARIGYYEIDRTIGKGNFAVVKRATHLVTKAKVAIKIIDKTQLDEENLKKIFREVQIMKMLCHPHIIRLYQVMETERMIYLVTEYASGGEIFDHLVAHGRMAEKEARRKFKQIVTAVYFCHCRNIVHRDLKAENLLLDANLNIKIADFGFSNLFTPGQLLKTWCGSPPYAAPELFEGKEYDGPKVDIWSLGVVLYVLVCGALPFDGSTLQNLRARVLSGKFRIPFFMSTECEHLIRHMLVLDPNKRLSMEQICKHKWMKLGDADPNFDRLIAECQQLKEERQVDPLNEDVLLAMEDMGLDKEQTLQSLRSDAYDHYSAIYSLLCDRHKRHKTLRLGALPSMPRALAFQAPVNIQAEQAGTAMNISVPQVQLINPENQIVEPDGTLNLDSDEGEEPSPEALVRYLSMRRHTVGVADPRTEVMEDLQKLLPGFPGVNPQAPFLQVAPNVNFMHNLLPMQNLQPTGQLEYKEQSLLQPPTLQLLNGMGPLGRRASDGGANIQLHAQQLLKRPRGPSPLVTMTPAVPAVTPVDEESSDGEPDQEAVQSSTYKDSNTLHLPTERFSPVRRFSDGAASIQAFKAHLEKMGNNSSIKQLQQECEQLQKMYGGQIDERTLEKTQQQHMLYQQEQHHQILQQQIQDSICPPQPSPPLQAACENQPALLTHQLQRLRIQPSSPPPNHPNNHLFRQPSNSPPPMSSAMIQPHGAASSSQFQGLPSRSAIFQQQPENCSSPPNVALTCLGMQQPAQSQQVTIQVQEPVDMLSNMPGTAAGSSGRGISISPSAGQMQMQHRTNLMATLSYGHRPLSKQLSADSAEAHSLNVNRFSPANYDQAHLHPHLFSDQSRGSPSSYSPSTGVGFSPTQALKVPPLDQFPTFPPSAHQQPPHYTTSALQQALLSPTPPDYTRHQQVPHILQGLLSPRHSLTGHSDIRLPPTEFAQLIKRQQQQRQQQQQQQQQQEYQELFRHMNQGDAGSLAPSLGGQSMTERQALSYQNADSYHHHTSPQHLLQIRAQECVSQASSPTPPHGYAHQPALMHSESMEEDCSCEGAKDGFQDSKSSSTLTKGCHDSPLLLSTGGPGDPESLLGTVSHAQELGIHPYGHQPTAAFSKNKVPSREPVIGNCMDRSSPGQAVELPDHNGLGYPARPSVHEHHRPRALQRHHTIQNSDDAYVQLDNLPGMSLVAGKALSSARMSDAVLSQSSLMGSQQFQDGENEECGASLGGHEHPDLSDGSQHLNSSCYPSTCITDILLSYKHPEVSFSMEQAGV
Method in brief: as §1

[3] = biological target: WNK1(h) (Homo sapiens, UniProt Q9H4A3)
Chain of WNK1(h) (Q9H4A3 whole entry): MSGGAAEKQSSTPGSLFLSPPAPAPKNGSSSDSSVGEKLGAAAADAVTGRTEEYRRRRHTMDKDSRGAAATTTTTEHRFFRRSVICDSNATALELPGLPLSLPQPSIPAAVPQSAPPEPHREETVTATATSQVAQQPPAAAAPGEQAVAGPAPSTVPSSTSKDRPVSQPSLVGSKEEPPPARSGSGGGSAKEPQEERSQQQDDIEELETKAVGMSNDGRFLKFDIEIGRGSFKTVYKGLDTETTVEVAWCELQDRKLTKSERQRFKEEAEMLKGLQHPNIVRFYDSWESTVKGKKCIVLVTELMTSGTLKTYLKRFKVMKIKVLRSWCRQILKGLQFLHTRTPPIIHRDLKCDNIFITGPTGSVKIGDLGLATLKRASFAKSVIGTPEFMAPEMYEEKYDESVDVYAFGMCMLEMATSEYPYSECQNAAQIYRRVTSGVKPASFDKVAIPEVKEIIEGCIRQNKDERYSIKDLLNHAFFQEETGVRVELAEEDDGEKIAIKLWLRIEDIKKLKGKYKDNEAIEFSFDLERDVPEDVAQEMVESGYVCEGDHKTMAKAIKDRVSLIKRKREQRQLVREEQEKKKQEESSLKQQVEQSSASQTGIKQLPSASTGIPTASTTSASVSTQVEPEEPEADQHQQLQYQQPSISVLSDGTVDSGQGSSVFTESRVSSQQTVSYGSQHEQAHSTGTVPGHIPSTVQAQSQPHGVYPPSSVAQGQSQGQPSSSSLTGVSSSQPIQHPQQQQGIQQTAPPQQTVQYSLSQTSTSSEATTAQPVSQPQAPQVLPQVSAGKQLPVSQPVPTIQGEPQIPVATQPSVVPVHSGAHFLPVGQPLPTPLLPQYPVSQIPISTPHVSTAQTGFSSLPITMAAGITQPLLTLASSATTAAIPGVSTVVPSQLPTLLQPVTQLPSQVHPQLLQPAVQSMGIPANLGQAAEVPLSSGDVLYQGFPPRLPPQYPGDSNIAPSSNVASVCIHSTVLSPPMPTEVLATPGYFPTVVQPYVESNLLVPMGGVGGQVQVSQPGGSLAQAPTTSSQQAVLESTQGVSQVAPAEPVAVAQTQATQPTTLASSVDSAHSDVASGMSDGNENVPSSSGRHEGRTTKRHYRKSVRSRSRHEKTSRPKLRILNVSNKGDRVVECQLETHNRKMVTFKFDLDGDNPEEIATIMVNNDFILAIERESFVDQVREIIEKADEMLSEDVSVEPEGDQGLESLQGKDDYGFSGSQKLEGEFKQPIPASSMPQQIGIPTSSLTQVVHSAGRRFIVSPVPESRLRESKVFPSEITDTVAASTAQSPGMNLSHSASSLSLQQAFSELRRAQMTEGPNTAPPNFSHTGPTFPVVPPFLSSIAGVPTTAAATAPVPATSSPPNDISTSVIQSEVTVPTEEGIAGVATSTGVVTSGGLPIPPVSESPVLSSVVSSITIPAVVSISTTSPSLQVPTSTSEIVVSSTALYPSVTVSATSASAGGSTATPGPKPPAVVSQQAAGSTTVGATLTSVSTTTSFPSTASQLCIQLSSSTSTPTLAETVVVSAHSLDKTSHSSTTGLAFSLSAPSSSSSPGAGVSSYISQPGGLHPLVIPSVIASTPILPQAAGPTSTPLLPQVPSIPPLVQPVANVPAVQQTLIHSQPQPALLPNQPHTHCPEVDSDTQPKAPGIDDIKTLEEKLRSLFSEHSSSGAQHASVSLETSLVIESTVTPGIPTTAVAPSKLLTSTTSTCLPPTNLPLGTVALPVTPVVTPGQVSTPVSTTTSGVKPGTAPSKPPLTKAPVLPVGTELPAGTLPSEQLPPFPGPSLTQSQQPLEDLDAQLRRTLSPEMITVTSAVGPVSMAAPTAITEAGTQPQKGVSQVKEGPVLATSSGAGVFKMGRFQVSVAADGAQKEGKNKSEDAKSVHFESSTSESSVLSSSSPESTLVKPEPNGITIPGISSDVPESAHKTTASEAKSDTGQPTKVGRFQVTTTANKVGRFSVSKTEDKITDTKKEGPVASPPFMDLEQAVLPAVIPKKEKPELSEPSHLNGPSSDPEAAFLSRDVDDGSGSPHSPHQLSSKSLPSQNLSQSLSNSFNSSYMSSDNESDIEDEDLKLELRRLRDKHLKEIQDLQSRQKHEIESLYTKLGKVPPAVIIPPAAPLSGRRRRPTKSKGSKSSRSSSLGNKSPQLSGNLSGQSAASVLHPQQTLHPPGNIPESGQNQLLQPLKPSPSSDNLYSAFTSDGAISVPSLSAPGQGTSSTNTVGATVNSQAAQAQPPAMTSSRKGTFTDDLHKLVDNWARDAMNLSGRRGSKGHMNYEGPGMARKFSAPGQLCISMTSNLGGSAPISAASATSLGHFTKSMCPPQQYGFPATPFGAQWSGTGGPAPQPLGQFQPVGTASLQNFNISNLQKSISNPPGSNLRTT
Method in brief: as §1

[4] = biological target: T1, BrSK2(h) (Homo sapiens, UniProt Q8IWQ3)
T1 sequence (Q8IWQ3 1-736): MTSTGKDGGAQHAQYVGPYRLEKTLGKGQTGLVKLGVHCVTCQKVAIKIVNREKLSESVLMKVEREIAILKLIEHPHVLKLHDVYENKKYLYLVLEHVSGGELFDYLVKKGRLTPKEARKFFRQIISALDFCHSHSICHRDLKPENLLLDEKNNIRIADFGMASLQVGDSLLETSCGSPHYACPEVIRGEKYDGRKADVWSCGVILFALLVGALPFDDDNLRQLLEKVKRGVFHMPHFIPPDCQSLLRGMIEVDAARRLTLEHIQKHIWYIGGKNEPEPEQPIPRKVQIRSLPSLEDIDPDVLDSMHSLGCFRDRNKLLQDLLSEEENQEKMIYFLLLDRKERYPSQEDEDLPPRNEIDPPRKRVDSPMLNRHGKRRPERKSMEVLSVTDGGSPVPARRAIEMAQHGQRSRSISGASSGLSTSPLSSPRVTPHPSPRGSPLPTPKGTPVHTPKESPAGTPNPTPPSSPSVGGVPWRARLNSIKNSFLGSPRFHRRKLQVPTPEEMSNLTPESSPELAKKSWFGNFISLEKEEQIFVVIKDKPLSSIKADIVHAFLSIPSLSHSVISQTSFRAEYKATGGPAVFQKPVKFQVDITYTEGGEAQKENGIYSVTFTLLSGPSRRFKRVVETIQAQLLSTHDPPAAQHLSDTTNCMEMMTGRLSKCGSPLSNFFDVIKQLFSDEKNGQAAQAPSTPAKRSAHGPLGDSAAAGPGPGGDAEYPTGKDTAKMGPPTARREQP
Method in brief: as §1

[5] = biological target: T2, CaMKIIα(h) (Homo sapiens, UniProt Q9UQM7)
T2 construct: gene CAMK2A
T2 sequence (Q9UQM7 whole entry): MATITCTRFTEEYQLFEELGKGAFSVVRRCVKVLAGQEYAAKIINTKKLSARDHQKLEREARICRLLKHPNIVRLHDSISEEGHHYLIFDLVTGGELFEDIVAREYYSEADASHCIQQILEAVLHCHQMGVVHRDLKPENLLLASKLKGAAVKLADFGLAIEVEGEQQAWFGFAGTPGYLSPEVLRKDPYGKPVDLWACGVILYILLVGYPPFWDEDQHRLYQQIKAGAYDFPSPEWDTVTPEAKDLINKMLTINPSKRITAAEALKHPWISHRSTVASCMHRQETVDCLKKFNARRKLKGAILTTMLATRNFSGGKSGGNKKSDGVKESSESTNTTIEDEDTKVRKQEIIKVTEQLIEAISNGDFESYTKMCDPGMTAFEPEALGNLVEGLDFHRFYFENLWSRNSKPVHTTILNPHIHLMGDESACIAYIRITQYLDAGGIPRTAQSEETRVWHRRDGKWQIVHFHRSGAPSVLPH
Method in brief: as §1

[6] = biological target: CDK1/cyclinB(h) (Homo sapiens, UniProt P06493)
Chain of CDK1/cyclinB(h) (P06493 whole entry): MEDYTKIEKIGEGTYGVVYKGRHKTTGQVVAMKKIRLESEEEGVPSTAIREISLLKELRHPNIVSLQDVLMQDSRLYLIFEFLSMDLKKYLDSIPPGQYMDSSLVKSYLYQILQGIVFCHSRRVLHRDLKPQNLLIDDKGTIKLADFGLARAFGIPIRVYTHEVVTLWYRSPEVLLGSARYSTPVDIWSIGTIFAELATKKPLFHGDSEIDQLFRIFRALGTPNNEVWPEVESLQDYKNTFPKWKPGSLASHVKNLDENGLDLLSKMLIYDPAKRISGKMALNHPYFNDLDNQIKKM
Chain of CDK1/cyclinB(h) (P14635 whole entry partner): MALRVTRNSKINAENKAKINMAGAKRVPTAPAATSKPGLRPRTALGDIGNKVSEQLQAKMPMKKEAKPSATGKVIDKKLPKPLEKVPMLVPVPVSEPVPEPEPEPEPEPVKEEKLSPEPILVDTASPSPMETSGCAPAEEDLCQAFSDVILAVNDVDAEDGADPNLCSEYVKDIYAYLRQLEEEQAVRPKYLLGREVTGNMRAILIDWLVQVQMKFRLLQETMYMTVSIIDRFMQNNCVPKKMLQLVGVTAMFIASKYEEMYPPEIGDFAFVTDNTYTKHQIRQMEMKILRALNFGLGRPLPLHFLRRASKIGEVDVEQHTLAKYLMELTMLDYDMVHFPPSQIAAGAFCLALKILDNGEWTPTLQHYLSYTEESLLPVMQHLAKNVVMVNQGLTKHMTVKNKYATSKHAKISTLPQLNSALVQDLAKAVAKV
Method in brief: as §1

[7] = biological target: T3, ChaK1(h) (Homo sapiens, UniProt Q96QT4)
T3 construct: gene TRPM7
Method in brief: as §1

[8] = biological target: T4, EphA8(h) (Homo sapiens, UniProt P29322)
T4 sequence (P29322 1-1005): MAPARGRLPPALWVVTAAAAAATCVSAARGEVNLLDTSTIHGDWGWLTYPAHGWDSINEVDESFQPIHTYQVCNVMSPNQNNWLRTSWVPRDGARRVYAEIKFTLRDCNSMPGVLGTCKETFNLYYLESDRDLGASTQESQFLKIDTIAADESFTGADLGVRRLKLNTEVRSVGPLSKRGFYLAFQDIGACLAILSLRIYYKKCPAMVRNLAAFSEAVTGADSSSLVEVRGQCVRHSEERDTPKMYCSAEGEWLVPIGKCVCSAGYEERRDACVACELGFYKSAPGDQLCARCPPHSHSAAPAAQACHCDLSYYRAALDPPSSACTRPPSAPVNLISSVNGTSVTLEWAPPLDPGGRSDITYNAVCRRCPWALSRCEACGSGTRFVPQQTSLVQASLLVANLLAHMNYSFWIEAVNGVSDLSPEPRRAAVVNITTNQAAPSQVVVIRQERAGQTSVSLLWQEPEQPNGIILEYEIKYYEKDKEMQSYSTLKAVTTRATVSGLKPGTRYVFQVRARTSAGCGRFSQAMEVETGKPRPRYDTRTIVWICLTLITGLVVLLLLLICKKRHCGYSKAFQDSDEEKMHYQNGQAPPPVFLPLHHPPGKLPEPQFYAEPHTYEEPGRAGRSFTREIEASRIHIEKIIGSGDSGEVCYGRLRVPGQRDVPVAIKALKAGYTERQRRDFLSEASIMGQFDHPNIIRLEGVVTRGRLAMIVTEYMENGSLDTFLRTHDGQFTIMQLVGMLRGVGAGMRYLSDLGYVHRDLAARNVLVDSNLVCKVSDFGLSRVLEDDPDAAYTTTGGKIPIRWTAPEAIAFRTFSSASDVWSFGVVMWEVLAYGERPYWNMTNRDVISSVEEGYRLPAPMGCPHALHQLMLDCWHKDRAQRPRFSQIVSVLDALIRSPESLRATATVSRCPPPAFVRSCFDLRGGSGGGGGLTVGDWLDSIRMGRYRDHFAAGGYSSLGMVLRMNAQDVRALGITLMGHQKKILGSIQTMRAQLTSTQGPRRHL
Method in brief: as §1

[9] = read-out: Residual activity (%) Spautin-1 5aa
[10] = read-out: Residual activity (%) 5as
[11] = read-out: Residual activity (%) 5at
[12] = read-out: Residual activity (%) 5ay

Structure (SMILES): Fc1ccc(CNc2ncnc3ccc(F)cc23)cc1 [5aa, 6-Fluoro-N-(4-fluorobenzyl)-4-Quinazolinamine]
- remaining activity at 10 µM [1, 9]: 99%
- remaining activity at 10 µM [2, 9]: 95%
- remaining activity at 10 µM [3, 9]: 78%
- remaining activity at 10 µM [4, 9]: 79%
- remaining activity at 10 µM [5, 9]: 94%
- remaining activity at 10 µM [6, 9]: 87%
- remaining activity at 10 µM [7, 9]: 86%
- remaining activity at 10 µM [8, 9]: 87%

Structure (SMILES): Fc1ccc(CCNc2ncnc3ccc(F)cc23)cc1 [5as, 6-Fluoro-N-[2-(4-Fluorophenyl)Ethyl]-4-Quinazolinamine]
- remaining activity at 10 µM [1, 10]: 85%
- remaining activity at 10 µM [2, 10]: 79%
- remaining activity at 10 µM [3, 10]: 81%
- remaining activity at 10 µM [4, 10]: 65%
- remaining activity at 10 µM [5, 10]: 88%
- remaining activity at 10 µM [6, 10]: 90%
- remaining activity at 10 µM [7, 10]: 81%
- remaining activity at 10 µM [8, 10]: 88%

Structure (SMILES): Fc1ccc2ncnc(NCCc3ccc(Cl)cc3)c2c1 [5at, N-[2-(4-Chlorophenyl)Ethyl]-6-Fluoro-4-Quinazolinamine]
- remaining activity at 10 µM [1, 11]: 73%
- remaining activity at 10 µM [2, 11]: 71%
- remaining activity at 10 µM [3, 11]: 92%
- remaining activity at 10 µM [4, 11]: 71%
- remaining activity at 10 µM [5, 11]: 89%
- remaining activity at 10 µM [6, 11]: 91%
- remaining activity at 10 µM [7, 11]: 82%
- remaining activity at 10 µM [8, 11]: 71%

Structure (SMILES): COc1ccc2ncnc(Nc3cccc(F)c3)c2c1 [5ay, N-(3-Fluorophenyl)-6-Methoxy-4-Quinazolinamine]
- remaining activity at 10 µM [1, 12]: 102%
- remaining activity at 10 µM [2, 12]: 81%
- remaining activity at 10 µM [3, 12]: 75%
- remaining activity at 10 µM [4, 12]: 42%
- remaining activity at 10 µM [5, 12]: 58%
- remaining activity at 10 µM [6, 12]: 72%
- remaining activity at 10 µM [7, 12]: 77%
- remaining activity at 10 µM [8, 12]: 84%
